Values quoted from earlier work, collected in patent US20020150627A1, “Composition containing creatine and phosphorus” (priority 2001, published 2002).
Like-named read-outs stand apart in the source and are kept apart here.

Tests used:
[1] = tested on: subjects; conditions: for Increase power output compared to placebo according to Wallace et al: four times daily for 5 days
[2] = tested on: skeletal muscle; conditions: 4×5 gram creatine per day for five to six days
[3] = 1000 mg four times daily for 5 days

Row | SMILES | Increase power output compared to placebo according to Wallace et al ([1]; listed as Creatine, monohydrate) [%] | Increase power output compared to placebo according to Wallace et al ([1]; listed as creatine, monohydrate) [%] | Increase of skeletal muscle creatine content (average) [2] [%] | Phosphocreatine share of the increase in skeletal muscle creatine content [2] [%] | VO2 max elevated [1, 3] [%] | Ventilatory anaerobic threshold elevated [1, 3] [%] | Increase power output compared to placebo according to Wallace et al [1] [%] | Increase power output compared to placebo according to Wallace et al ([1]; listed as phosphate) [%]
1 | CN(CC(=O)O)C(=N)N.O [creatine monohydrate] | 3 | 3 | 20 | 20 |  |  |  | 
2 | O=P([O-])([O-])[O-].[Na+].[Na+].[Na+] [Phosphate, tribasic sodium phosphate] |  |  |  |  | 8 | 10 | 3 | 3
